# Calls of active or inactive are those of the source. No cut-off for these calls is given here.
# How the values were obtained:
# [1] = molecular target: Glycogen synthase kinase-3 alpha (Homo sapiens) (UniProt P49840); conditions: Compound concentration 100.0 nM
# [2] = molecular target: Dual serine/threonine and tyrosine protein kinase (Homo sapiens) (UniProt Q6XUX3); conditions: Compound concentration 100.0 nM
# [3] = test system: Mast/stem cell growth factor receptor Kit (Homo sapiens), P10721 [V559D]; conditions: Compound concentration 100.0 nM
# [4] = molecular target: Serine/threonine-protein kinase N2 (Homo sapiens) (UniProt Q16513); conditions: Compound concentration 100.0 nM
# [5] = molecular target: Serine/threonine-protein kinase MRCK beta (Homo sapiens) (UniProt Q9Y5S2); conditions: Compound concentration 100.0 nM
# [6] = molecular target: Macrophage colony-stimulating factor 1 receptor (Homo sapiens) (UniProt P07333); conditions: Compound concentration 100.0 nM
# [7] = molecular target: LIM domain kinase 1 (Homo sapiens, UniProt P53667); experiment: Inhibition of LIMK1 at compound concentration of 10.0 uM using the ScanMax (DiscoverX)
# [8] = molecular target: Tyrosine-protein kinase ZAP-70 (Homo sapiens) (UniProt P43403); conditions: Compound concentration 100.0 nM
# [9] = molecular target: Ephrin type-A receptor 8 (Homo sapiens) (UniProt P29322); conditions: Compound concentration 100.0 nM
# [10] = molecular target: 5-hydroxytryptamine receptor 2B (Homo sapiens, UniProt P41595); experiment: GPCRScan assay: inhibition of 5-HT2B; parameters: radioligand conc. used [nm] 1.0 – 2.0, parental cells stable HEK
# [11] = GPCRScan assay: inhibition of GABA/PBR; parameters: species or system Rattus norvegicus; radioligand conc. used [nm] 0.3 – 2.0, parental cells brain tissue
# [12] = molecular target: Phosphatidylinositol 4-phosphate 5-kinase type-1 gamma (Homo sapiens) (UniProt O60331); conditions: Compound concentration 100.0 nM
# [13] = molecular target: 5-hydroxytryptamine receptor 6 (Homo sapiens) (UniProt P50406); conditions: Compound concentration 10.0 uM
# [14] = molecular target: Eukaryotic translation initiation factor 2-alpha kinase 1 (Homo sapiens) (UniProt Q9BQI3); conditions: Compound concentration 100.0 nM
# [15] = molecular target: Cyclin-dependent kinase 3 (Homo sapiens) (UniProt Q00526); conditions: Compound concentration 100.0 nM
# [16] = molecular target: 3-phosphoinositide-dependent protein kinase 1 (Homo sapiens) (UniProt O15530); conditions: Compound concentration 100.0 nM
# [17] = molecular target: Muscarinic acetylcholine receptor M1 (Homo sapiens) (UniProt P11229); conditions: Compound concentration 10.0 uM
# [18] = molecular target: Mitogen-activated protein kinase kinase kinase 13 (Homo sapiens) (UniProt O43283); conditions: Compound concentration 100.0 nM
# [19] = molecular target: Tyrosine-protein kinase Tec (Homo sapiens) (UniProt P42680); conditions: Compound concentration 100.0 nM
# [20] = molecular target: Serine/threonine-protein kinase BRSK2 (Homo sapiens) (UniProt Q8IWQ3); conditions: Compound concentration 100.0 nM
# [21] = molecular target: Tyrosine-protein kinase Fgr (Homo sapiens, UniProt P09769); experiment: Invitrogen kinase assay (FGR)
# [22] = molecular target: Tyrosine-protein kinase JAK2 (Homo sapiens, UniProt O60674); experiment: Invitrogen kinase assay (JAK2)
# [23] = molecular target: Tyrosine-protein kinase ZAP-70 (Homo sapiens, UniProt P43403); experiment: Invitrogen kinase assay (ZAP70)
# [24] = molecular target: Sodium-dependent noradrenaline transporter (Homo sapiens, UniProt P23975); experiment: GPCRScan assay: inhibition of NET; parameters: radioligand conc. used [nm] 1.3 – 5.0, parental cells stable HEK
# [25] = molecular target: Tyrosine-protein kinase Fer (Homo sapiens, UniProt P16591); experiment: Invitrogen kinase assay (FER)
# [26] = molecular target: 5-hydroxytryptamine receptor 1E (Homo sapiens) (UniProt P28566); conditions: Compound concentration 10.0 uM
# [27] = molecular target: Proto-oncogene tyrosine-protein kinase Src (Homo sapiens, UniProt P12931); experiment: Invitrogen kinase assay (SRC)
# [28] = molecular target: NT-3 growth factor receptor (Homo sapiens, UniProt Q16288); experiment: Invitrogen kinase assay (NTRK3)
# [29] = molecular target: Tyrosine-protein kinase Fyn (Homo sapiens, UniProt P06241); experiment: Invitrogen kinase assay (FYN)
# [30] = molecular target: High affinity nerve growth factor receptor (Homo sapiens, UniProt P04629); experiment: Invitrogen kinase assay (NTRK1)
# [31] = molecular target: Tyrosine-protein kinase SYK (Homo sapiens, UniProt P43405); experiment: Inhibition of SYK at compound concentration of 10.0 uM using the ScanMax (DiscoverX)
# Chain of Serine/threonine-protein kinase MRCK beta (Homo sapiens) (Q9Y5S2 whole entry): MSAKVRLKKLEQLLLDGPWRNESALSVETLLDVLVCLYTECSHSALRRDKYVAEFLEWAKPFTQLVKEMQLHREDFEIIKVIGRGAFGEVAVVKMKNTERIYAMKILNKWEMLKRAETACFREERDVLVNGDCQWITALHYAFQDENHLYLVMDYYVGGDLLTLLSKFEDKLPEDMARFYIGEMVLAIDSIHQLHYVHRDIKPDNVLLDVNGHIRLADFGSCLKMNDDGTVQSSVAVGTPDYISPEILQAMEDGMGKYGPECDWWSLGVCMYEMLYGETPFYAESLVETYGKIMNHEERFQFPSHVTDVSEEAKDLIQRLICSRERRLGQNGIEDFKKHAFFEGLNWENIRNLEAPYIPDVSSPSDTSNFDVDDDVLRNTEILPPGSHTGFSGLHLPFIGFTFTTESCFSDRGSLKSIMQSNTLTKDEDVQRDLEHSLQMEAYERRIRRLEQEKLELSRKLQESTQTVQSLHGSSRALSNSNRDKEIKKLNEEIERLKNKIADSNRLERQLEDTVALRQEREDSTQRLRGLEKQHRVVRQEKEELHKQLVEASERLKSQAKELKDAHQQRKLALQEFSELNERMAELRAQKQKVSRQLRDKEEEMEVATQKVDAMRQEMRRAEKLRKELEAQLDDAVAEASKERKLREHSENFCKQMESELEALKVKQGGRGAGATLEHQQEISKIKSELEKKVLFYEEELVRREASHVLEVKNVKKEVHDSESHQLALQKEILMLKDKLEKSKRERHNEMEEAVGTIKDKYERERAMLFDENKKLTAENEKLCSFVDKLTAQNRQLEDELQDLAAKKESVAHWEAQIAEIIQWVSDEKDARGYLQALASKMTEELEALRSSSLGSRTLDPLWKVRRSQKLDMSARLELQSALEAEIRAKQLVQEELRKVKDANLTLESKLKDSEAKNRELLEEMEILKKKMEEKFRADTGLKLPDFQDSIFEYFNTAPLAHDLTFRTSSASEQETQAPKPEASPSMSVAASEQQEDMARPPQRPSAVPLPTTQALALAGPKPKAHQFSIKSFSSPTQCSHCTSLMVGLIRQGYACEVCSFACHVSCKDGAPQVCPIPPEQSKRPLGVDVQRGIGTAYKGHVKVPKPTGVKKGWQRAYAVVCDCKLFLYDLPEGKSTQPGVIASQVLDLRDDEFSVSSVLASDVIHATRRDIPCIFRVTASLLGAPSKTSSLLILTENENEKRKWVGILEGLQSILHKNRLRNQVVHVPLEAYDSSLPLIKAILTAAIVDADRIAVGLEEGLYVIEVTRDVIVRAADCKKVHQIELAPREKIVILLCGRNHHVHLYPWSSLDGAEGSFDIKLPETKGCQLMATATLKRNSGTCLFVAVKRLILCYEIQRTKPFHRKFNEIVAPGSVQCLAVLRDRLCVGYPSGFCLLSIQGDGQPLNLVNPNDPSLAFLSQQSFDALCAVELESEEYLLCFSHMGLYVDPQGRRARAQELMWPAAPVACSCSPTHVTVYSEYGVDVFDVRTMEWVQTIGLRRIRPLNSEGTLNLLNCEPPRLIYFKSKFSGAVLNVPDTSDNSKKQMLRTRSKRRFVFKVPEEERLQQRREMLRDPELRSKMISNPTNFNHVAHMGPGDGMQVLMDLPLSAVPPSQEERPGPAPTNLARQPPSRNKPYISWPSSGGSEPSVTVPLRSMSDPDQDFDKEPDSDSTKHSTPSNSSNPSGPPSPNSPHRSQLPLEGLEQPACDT
# Chain of Glycogen synthase kinase-3 alpha (Homo sapiens) (P49840 2-483 limits assumed): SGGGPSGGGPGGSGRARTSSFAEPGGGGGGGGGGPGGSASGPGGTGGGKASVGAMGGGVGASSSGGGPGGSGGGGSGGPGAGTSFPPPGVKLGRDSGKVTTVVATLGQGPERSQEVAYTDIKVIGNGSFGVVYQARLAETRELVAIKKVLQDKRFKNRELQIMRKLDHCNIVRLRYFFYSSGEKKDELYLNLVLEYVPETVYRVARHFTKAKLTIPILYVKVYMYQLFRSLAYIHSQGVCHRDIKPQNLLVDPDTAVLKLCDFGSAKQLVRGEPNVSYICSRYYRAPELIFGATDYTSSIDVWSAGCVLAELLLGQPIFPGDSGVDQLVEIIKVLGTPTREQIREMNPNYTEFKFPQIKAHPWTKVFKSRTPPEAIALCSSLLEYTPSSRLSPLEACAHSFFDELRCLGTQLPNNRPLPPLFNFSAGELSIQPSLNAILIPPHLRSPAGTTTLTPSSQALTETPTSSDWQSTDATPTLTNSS
# Chain of Serine/threonine-protein kinase N2 (Homo sapiens) (Q16513 whole entry, looked up): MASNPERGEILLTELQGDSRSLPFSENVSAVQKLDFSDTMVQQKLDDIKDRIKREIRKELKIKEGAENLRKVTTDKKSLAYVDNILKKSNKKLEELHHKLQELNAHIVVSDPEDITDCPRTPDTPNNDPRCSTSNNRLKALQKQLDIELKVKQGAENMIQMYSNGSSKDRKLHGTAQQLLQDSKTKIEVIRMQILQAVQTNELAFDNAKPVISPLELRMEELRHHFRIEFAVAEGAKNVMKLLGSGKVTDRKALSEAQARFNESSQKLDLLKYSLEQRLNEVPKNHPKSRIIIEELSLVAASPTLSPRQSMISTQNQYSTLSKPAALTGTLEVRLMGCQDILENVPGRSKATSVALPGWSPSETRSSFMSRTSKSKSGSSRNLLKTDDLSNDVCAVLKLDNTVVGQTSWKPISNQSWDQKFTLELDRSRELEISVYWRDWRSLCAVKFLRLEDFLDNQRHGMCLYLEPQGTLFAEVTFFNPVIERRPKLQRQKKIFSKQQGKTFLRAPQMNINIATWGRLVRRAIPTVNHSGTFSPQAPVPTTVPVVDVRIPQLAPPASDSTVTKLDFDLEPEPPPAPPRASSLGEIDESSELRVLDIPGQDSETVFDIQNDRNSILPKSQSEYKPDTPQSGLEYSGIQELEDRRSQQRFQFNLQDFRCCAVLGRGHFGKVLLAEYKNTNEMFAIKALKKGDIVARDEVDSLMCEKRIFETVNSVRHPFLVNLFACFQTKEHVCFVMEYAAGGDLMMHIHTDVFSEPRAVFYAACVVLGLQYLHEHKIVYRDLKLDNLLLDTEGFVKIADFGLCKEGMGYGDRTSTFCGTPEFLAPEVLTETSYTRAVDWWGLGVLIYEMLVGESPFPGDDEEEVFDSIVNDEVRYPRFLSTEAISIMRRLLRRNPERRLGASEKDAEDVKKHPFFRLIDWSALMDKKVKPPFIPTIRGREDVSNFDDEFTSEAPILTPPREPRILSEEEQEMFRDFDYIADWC
# Chain of Mast/stem cell growth factor receptor Kit (Homo sapiens), P10721 [V559D] (P10721 whole entry V559D): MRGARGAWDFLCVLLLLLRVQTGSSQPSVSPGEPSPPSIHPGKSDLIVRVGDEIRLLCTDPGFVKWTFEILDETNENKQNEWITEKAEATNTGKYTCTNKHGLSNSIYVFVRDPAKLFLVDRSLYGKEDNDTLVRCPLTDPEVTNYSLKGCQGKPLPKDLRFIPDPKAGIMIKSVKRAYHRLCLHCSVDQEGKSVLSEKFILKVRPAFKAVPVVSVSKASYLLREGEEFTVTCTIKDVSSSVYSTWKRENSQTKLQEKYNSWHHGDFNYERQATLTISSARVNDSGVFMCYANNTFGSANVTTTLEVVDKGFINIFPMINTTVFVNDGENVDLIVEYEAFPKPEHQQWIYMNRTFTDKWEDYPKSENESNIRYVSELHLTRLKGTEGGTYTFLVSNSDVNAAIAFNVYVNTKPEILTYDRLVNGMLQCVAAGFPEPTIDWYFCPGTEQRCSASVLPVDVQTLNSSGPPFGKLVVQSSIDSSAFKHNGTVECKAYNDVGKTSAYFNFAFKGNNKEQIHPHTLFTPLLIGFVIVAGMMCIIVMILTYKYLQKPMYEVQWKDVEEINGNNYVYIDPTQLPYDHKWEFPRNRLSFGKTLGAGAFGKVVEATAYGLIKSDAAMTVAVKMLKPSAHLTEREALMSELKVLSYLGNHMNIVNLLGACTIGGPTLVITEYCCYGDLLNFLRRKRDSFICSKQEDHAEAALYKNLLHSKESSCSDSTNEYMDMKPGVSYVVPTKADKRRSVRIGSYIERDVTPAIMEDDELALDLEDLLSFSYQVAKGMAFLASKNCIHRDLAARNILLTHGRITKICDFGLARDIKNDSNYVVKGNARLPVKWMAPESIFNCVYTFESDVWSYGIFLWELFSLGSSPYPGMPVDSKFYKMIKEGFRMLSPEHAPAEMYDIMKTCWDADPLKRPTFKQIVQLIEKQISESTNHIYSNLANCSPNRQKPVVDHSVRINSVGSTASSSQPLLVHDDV
# Chain of Phosphatidylinositol 4-phosphate 5-kinase type-1 gamma (Homo sapiens) (O60331 whole entry): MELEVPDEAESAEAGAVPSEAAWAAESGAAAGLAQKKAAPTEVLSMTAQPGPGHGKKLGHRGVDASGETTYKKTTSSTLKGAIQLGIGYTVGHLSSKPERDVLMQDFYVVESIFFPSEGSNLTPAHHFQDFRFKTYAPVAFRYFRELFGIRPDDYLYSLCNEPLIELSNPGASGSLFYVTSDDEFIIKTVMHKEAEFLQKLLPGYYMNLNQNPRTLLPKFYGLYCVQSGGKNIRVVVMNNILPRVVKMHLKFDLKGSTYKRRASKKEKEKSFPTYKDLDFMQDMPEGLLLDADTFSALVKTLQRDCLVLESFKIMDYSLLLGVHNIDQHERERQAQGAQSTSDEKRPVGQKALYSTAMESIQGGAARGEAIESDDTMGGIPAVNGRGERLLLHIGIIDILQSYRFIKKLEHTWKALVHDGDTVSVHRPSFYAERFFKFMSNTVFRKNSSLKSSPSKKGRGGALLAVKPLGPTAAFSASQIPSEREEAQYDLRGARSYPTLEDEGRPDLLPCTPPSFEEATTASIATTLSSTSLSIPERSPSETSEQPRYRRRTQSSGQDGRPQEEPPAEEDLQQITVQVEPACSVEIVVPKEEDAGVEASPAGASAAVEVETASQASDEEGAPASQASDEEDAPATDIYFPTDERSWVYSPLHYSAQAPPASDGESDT
Compound,residual activity [1] [%],residual activity [2] [%],residual activity [3] [%],residual activity [4] [%],residual activity [5] [%],residual activity [6] [%],residual activity [8] [%],residual activity [9] [%],residual activity [12] [%],residual activity [14] [%],residual activity [15] [%],residual activity [16] [%],residual activity [18] [%],residual activity [19] [%],residual activity [20] [%],also measured
Cc1ccc(-c2cnc([C@@]3(O)CC[C@H](C(=O)O)C(C)(C)C3)s2)cc1Nc1cccc(C(F)(F)F)n1 [MRL-SYKi-NC],86.8,100,90,96.3,91.6,100,88.5,88.9,100,83.4,92.9,95.5,100,91.2,60.7,Kd [7]: > 10000 nM (not active); Ki [10]: 1060 nM; Ki [11]: 774 nM; pKi [11]: 6.11; inhibition [13]: 6.66%; inhibition [17]: -6.43%
Cc1cc(Nc2nccc(C)n2)cc(-c2cnc([C@@]3(O)CC[C@H](C(=O)O)C(C)(C)C3)s2)c1 [MRL-SYKi],100,100,100,100,100,100,44.9,100,92.4,100,100,86.5,100,75.2,100,IC50 [21]: 185 nM (not active); IC50 [22]: 242 nM (not active); IC50 [23]: 24 nM (active); Ki [24]: 7710 nM; IC50 [25]: 232 nM (not active); inhibition [26]: 11.4%; IC50 [27]: 100 nM (not active); IC50 [28]: 120 nM (not active); IC50 [29]: 205 nM (not active); IC50 [30]: 105 nM (not active); Kd [31]: 1.8 nM (active)

# From ChEMBL document CHEMBL4507285, “Data for DCP probe MRL-SYKi” (2021)
